According to paper PMC10999085, “Synthesis, anticancer evaluation, molecular docking and ADME study of novel pyrido[4ʹ,3ʹ:3,4]pyrazolo[1,5-a]pyrimidines as potential tropomyosin receptor kinase A (TrKA) inhibitors” (BMC Chemistry, 2024):
Values after ≈ are worked out from the molar mass of the structure shown. “Also recorded” adds a separate entry of the source. Each block holds one molecule with its values, some of them ahead of it.

Tests used:
Trk family = system: Trk family; parameters: method as in earlier work; settings: cited from earlier work
MCF7 cell line = assay: MTT assay, MCF7 cell line; type: cell-based, human; settings: 24 hr treatment, in % (unit assumed)
In short: (§1)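 Cells in RPMI-1640 with 10% FBS were seeded at 1.0x10^4 cells/well and cultured 48 h, then exposed to compound for 24 hr. Viability was measured by MTT reduction (4 hr), with formazan dissolved in DMSO and read at 570 nm, relative to untreated cells. Values are means of three independent triplicate experiments.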

HepG2 cells [1] = assay: In-vitro cell cycle analysis (PI flow cytometry); type: cell-based, human
Procedure: HepG-2 cells are pre-cultured in 25 cm^2 cell culture flask. RPMI-1640 medium was used. Tested compounds 7b, 9c, 15b, 16a and 16c were used in the cell treatment at their IC50 by dissolving them in the required medium separately. The procedure was discussed in details in the ESI.
For cell cycle analysis, stained DNA from HepG2 cancer cells was treated with compounds 7b, 15b, 16a and 16c that induce cancer cell death by inhibiting TrKA. From the results in Table 5, it can be seen that the proportion of cells at phase in the pre-G1 of compounds 7b, 15b, 16a and 16c increased the proportion of cells at phase in the G2/M by about 4, 4, 2.5 and 3 folds, respectively.
HepG-2 cells were pre-cultured in 25 cm^2 cell culture flasks; RPMI-1640 medium was used. Tested compounds 7b, 15b, 16a and 16c were dissolved separately in the required medium and used in the cell treatment at their IC50. After overnight treatment the cells were collected and fixed gently with 70% (v/v) ethanol in PBS, incubated overnight at 4 °C, and resuspended in PBS containing 40 µg/ml propidium iodide (PI), 0.1 mg/ml RNase and 0.1% (v/v) Triton X-100 in the dark room at after 30 min at 37 °C, the cell cycle analysis was performed using a flow cytometer, equipped with an argon ion laser at a wavelength of 488 nm (Becton-Dickinson, San Josa, CA, USA) and the percentage of cells at G1, S and G2/M was also calculated.

HCT-116 cell line = assay: MTT assay, HCT-116 cell line; type: cell-based, human; settings: MTT, 24 hr treatment, in % (unit assumed)
In short: as §1

HepG2 cells [2] = assay: Annexin V-FITC apoptosis assay; type: cell-based, human
Procedure: HepG-2 cells were harvested and incubated with compounds 7b, 15b, 16a and 16c separately for 48 h. Then, the cells were collected and washed with PBS two successive times followed by centrifugation. After that, the cells were treated with Annexin V-FITC and propidium iodide (PI) using the apoptosis detection kit (BD Biosciences and Annexin V-FITC and PI binding were analyzed by a flow cytometer.
Early and late apoptosis was determined after treatment of HepG2 cells with compounds 7b, 15b, 16a and 16c compared with untreated control cells. The late apoptosis rate increased by about 13, 20, 4 and 3 times, respectively, showing a higher efficiency than the early apoptosis ratio 5, 2, 8 and 6 times, respectively.
As mentioned above, HepG-2 cells were collected and incubated separately with compounds 7b, 15b, 16a and 16c for 48 hr. Cells were then collected and washed twice consecutively with PBS and centrifuged. After that, the cells were treated with Annexin V-FITC and propidium iodide (PI) using an apoptosis detection kit (BD Biosciences, San Jose, CA) according to the manufacturer's instructions. The biding of Annexin V-FITC and PI was analyzed by ﬂow cytometer.

HepG2 cell line = assay: MTT assay, HepG2 cell line; type: cell-based, human
In short: as §1

[3] = target: T1, Tropomyosin receptor kinase A (TrKA) (Homo sapiens, UniProt P04629); assay: Tropomyosin receptor kinase A (TrKA) inhibitory assay (Kinase-Glo MAX kit); type: biochemical; settings: in vitro kinase assay, recombinant TrkA
T1 construct: purchased
From the text: (§2) The TrkA assay Kit is designed to measure TrkA activity for screening and profiling applications using Kinase-Glo® MAX as a detection reagent. The TrkA Assay Kit comes in a convenient 96-well format, with enough purified recombinant TrkA enzyme, TrkA substrate, ATP and kinase assay buffer for 100 enzyme reactions. The method was discussed in details in the ESI.
as §2, with “reactions.” for “reactions. The method was discussed in details in the ESI.”
The assay protocol: all samples and controls should be tested in duplicate. Dissolve 5x Kinase Assay Buffer 1, ATP, and PTK Substrate Poly (Glu:Tyr 4:1) (10 mg/ml). 2). The master mixture (25 μl per well) was prepared by N wells x (6 μl 5x Kinase Assay Buffer 1 + 1 μl ATP (500 μM) + 1 μl PTK Substrate Poly (Glu:Tyr 4:1) (10mg/ml) + 17 μl water). Add 5 μl of Inhibitor solution of each well labeled as “Test Inhibitor”. For the “Positive Control" and “Blank”, add 5 μl of the same solution without inhibitor (Inhibitor buffer). Prepare 3 ml of 1x Kinase assay buffer 1 by mixing 600 μl of 5x Kinase assay buffer 1 with 2400 μl water 3 ml of 1x Kinase assay buffer is sufficient for 100 reactions. To the wells designated as "Blank", add 20 μl of 1x Kinase assay buffer 1and thaw TrkA enzyme on ice. Upon first thaw, briefly spin tube containing enzyme to recover full content of the tube. Calculate the amount of TrkA required for the assay and dilute enzyme to 5 ng/μl with 1x Kinase assay buffer. Store remaining undiluted enzyme in aliquots at -80°C. Then initiate reaction by adding 20 μl of diluted TrkA enzyme to the wells designated “Positive Control” and "Test Inhibitor Control". Incubate at 30°C for 45minutes and thaw Kinase-Glo Max reagent. After the 45 minute reaction, add 50 μl of Kinase-Glo Max reagent to each well. Cover plate with aluminum foil and incubate the plate at room temperature for 15 minutes. Immediately read sample in a luminometer or microtiter-plate capable of reading chemiluminescence. “Blank” value is subtracted from all readings.

[4] = HepG2, compared with untreated control cells

T1 sequence (P04629 33-796): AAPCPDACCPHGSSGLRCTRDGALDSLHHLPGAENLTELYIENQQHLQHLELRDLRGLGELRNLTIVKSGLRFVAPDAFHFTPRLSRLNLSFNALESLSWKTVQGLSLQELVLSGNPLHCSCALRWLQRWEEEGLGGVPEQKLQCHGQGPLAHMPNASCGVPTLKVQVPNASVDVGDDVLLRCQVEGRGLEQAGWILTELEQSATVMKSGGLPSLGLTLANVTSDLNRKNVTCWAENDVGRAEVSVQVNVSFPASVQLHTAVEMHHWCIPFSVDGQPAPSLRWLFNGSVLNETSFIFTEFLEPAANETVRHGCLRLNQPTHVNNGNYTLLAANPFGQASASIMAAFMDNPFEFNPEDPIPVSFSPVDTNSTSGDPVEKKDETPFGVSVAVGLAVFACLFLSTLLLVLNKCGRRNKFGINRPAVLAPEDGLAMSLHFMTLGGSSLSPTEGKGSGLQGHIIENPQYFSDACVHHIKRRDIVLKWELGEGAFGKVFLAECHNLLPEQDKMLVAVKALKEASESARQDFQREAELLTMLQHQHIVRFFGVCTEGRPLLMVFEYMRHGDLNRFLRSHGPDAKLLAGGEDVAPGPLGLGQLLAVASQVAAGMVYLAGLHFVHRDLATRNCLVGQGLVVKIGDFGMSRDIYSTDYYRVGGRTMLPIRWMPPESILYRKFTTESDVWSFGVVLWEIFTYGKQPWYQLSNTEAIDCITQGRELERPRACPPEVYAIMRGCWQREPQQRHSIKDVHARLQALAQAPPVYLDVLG

Structure (SMILES): O=C(Nc1cnn2ccc(N3CCC[C@@H]3c3cc(F)ccc3F)nc12)N1CC[C@H](O)C1 [Larotrectinib]
- IC50 (Trk family): 2 to 20 nM

- IC50 (HepG2 cell line; Homo sapiens, HepG2, MTT, read-out: IC50 (drug concentration that inhibited 50% of cell proliferation)): 4.64 ng/mL (≈ 0.0132 µM)
- IC50 [3]: 288 nM
Structure (SMILES): COc1ccc(C=C2C(=O)NC(=O)c3c2nn2c(O)cc(C)nc32)cc1 [Compound 15b, 4-Hydroxy-7-(4-methoxybenzylidene)-2-methylpyrido[4ʹ,3ʹ:3,4]pyrazolo[1,5-a]pyrimidine-8,10(7H,9H)-dione]
- Cytotoxicity at 5 µg/l (MCF7 cell line; MCF7, 5 µg/l): 28.52
- Cytotoxicity at 10 µg/l (MCF7 cell line; MCF7, 10 µg/l): 62.92
- Cytotoxicity at 20 µg/l (MCF7 cell line; MCF7, 20 µg/l): 83.62
- Cell cycle comment (phase of arrest) (HepG2 cells [1]; HepG2): arrested in the cell cycle at G2/M phase; also recorded: arrest in cell cycle at the G2/M phase; also recorded: cell growth arrest@G2/M
- DNA content %G0-G1 (HepG2 cells [1]; HepG2, compound at its IC50): 33.57%
- DNA content %G2/M (HepG2 cells [1]; HepG2, compound at its IC50): 36.72%
- DNA content %Pre-G1 (HepG2 cells [1]; HepG2, compound at its IC50): 32.51%
- DNA content %S (HepG2 cells [1]; HepG2, compound at its IC50): 29.71%
- increase of the proportion of cells in the G2/M phase (HepG2 cells [1]; HepG2, versus control): about 4 folds
- Cytotoxicity at 5 µg/l (HCT-116 cell line; HCT116, 5 µg/l): 26.10
- Cytotoxicity at 10 µg/l (HCT-116 cell line; HCT116, 10 µg/l): 66.87
- Cytotoxicity at 20 µg/l (HCT-116 cell line; HCT116, 20 µg/l): 84.20
- Apoptosis Early (HepG2 cells [2]; HepG2, 48 h, Annexin V-FITC/PI): 2.93%
- Apoptosis Late (HepG2 cells [2]; HepG2, 48 h, Annexin V-FITC/PI): 20.12%
- Necrosis (HepG2 cells [2]; HepG2, 48 h, Annexin V-FITC/PI): 9.46%
- apoptosis-inducing effect (HepG2 cells [2]; HepG2, as stated in the abstract): 36.72%
- increase of early apoptosis ratio (HepG2 cells [2]; [4]): 2 times
- increase of late apoptosis rate (HepG2 cells [2]; [4]): ~20 times
- Cytotoxicity at 5 µg/l (HepG2 cell line; HepG2, 5 µg/l, MTT, 24 hr treatment, in % (unit assumed)): 49.48
- Cytotoxicity at 10 µg/l (HepG2 cell line; HepG2, 10 µg/l, MTT, 24 hr treatment, in % (unit assumed)): 75.98
- Cytotoxicity at 20 µg/l (HepG2 cell line; HepG2, 20 µg/l, MTT, 24 hr treatment, in % (unit assumed)): 78.66
